In US20250230155A1 (Vanderbilt University, priority 2021, published 2025):
Read-outs that look alike come from different tables or passages of the source.

Target: T1, human mAChR M4 (Homo sapiens, UniProt P08173)
T1 construct: expressed in transfected cells
T1 sequence (P08173 1-479): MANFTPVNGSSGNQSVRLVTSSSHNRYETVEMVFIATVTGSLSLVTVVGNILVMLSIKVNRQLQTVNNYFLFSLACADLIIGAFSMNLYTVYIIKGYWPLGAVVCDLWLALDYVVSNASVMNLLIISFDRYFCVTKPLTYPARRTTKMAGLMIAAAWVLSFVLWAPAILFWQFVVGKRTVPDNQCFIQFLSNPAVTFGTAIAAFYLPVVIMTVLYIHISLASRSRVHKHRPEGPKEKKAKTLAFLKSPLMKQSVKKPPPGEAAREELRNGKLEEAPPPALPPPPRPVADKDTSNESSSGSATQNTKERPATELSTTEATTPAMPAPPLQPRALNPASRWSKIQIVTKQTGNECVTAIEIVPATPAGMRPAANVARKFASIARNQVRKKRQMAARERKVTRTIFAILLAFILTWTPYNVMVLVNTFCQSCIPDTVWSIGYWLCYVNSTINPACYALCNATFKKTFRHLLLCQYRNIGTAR
Assay: mAChR M4 cell-based functional assay (calcium mobilization, CHO-K1 hM4-Gqi5 cells)
Settings: for Emax at 30 µM: CHO-K1, % ACh maximum at 30 μM, human M4; for EC50: increase in the EC20 acetylcholine response, CHO-K1 hM4-Gqi5 cells
Experimental: Human and rat M4 cDNAs, along with the chimeric G protein Gqi5, were transfected into Chinese hamster ovary (CHO-K1) cells purchased from the American Type Culture Collection using Lipofectamine2000. hM4-Gqi5 cells were grown in Ham's F-12 medium containing 10% heat-inactivated fetal bovine serum (FBS), 20 mM HEPES, 50 μg/mL G418 sulfate, and 500 μg/mL Hygromycin B. rM4-Ggi5 cells were grown in DiVEM containing 10% heat-inactivated FBS, 20 mM THEPES, 400 μμg/mL G418 sulfate, and 500 μμg/mL Hygromycin B.
For high throughput measurement of agonist-evoked increases in intracellular calcium, CHO-K1 cells stably expressing muscarinic receptors were plated in growth medium lacking G418 and hygromycin at 15,000 cells/20 μL/well in Greiner 384-well black-walled, tissue culture (TC)-treated, clear-bottom plates (VWR). Cells were incubated overnight at 37° C. and 5% CO2. The next day, cells were washed using an ELX 405 (BioTek) with assay buffer; the final volume was then aspirated to 20 μL. Next, 20 μL of a […] of Fluo-4/acetoxymethyl ester (Invitrogen, Carlsbad, CA), prepared as a 2.3 mM stock in DMSO and mixed in a 1:1 ratio with 10% (w/v) Pluronic F-127 and diluted in assay buffer, was added to the wells and the cell plates were incubated for 50 min at 37° C. and 5% C02. Dye was removed by washing with the ELX 405 and the final volume was aspirated to 20 μL. Compound master plates were formatted in an 11 point concentration-response curve (CRC) format (1:3 dilutions) in 100% DMSO with a starting concentration of 10 mM using a BRAVO liquid handler (Agilent). Test compound CRCs were then transferred to daughter plates (240 nL) using the Echo acoustic plate reformatter (Labcyte, Sunnyvale, CA) and then diluted into assay buffer (40 μL) to a 2× stock using a Thermo Fisher Combi (Thermo Fisher Scientific, Waltham, MA).
Calcium flux was measured using the Functional Drug Screening System (FDSS) 6000 or 7000 (Hamamatsu Corporation, Tokyo, Japan) as an increase in the fluorescent static ratio. Compounds were applied to cells (20 μL, 2×) using the automated system of the FDSS at 2-4 seconds into the protocol and the data were collected at 1 Hz. At 144 seconds, 10 μL of an EC20 concentration of the muscarinic receptor agonist acetylcholine was added (5×), followed by the addition of 12 μL of an EC80 concentration of acetylcholine at the 230 second time point (5×). Agonist activity was analyzed as a concentration-dependent increase in calcium mobilization upon compound addition. Positive allosteric modulator activity was analyzed as a concentration-dependent increase in the EC20 acetylcholine response. Antagonist activity was analyzed as a concentration-dependent decrease in the EC80 acetylcholine response. Concentration-response curves were generated using a four-parameter logistical equation in XLFit curve fitting software (IDBS, Bridgewater, NJ) for Excel (Microsoft, Redmond, WA) or Prism (GraphPad Software, Inc., San Diego, CA).
Compounds were synthesized as described above. Activity (EC50 and Emax) was determined in the mAChR M4 cell-based functional assay as described above and the data are shown in Table 2. The compound number corresponds to the compound numbers used in Table 1.

[1] = positive allosteric modulator activity, read-out: Human M4 EC50

Row | Emax at 30 µM [%] | EC50 [1] [nM] | SMILES | Emax (CHO-K1) [%] | EC50 (Human M4 EC50, positive allosteric modulator activity) [nM]
1 | 94 | 239 | Cc1cc(C#N)nnc1N1CCc2ncc(Nc3ccnn3C)cc2C1 [Example 311, 5-methyl-6-(3-((1-methyl-1H-pyrazol-5-yl)amino)-7,8-dihydro-1,6-naphthyridin-6(5H)-yl)pyridazine-3-carbonitrile] |  | 
2 | 50 | 458 | Cc1c(C#N)nnc(N2CCc3ncc(-c4ccc(N(C)C)nc4)cc3C2)c1C [Example 312, 6-(3-(6-(dimethylamino)pyridin-3-yl)-7,8-dihydro-1,6-naphthyridin-6(5H)-yl)-4,5-dimethylpyridazine-3-carbonitrile] |  | 
3 | 42 | 605 | Cc1cc(Nc2cnc3c(c2)CN(c2ncc(C#N)cc2C)CC3)n(CCC(C)C)n1 [Example 313, 6-(3-((1-isopentyl-3-methyl-1/- pyrazol-5-yl)amino)-7,8-dihydro-1,6-naphthyridin-6(5H)-yl)-5-methylnicotinonitrile] |  | 
4 | 94 | 26 | Cc1cc(C#N)cnc1N1CCc2ncc(N3CCCn4nccc43)cc2C1 [Example 314, 6-(3-(6,7-dihydropyrazolo[1,5-a]pyrimidin-4(5H)-yl)-7,8-dihydro-1,6-naphthyridin-6(5H)-yl)-5-methylnicotinonitrile] |  | 
5 | 47 | 961 | CCCCn1nc(C)cc1Nc1cnc2c(c1)CN(c1ncc(C#N)cc1C)CC2 [Example 315, 6-(3-((1-butyl-3-methyl-1H-pyrazol-5-yl)amino)-7,8-dihydro-1,6-naphthyridin-6(5H)-yl)-5-methylnicotinonitrile] |  | 
6 | 57 | 689 | Cc1cc(Nc2cnc3c(c2)CN(c2ncc(C#N)cc2C)CC3)n(C(C)C)n1 [Example 316, 6-(3-((1-isopropyl-3-methyl-1H-pyrazol-5-yl)amino)-7,8-dihydro-1,6-naphthyridin-6(5H)-yl)-5-methylnicotinonitrile] |  | 
7 | 85 | 98 | Cc1c(C#N)nnc(N2CCc3ncc(C4CC4)cc3C2)c1C [Example 317, 6-(3-cyclopropyl-7,8-dihydro-1,6-naphthyridin-6(5H)-yl)-4,5-dimethylpyridazine-3-carbonitrile] |  | 
8 | 74 | 470 | Cc1cc(C#N)cnc1N1CCc2ncc(-c3ccc(N(C)C)nc3)cc2C1 [Example 318, 6-(3-(6-(dimethylamino)pyridin-3-yl)-7,8-dihydro-1,6-naphthyridin-6(5H)-yl)-5-methylnicotinonitrile] |  | 
9 | 76 | 144 | Cc1cc(C#N)cnc1N1CCc2ncc(-c3ccc(F)nc3)cc2C1 [Example 319, 6-(3-(6-fluoropyridin-3-yl)-7,8-dihydro-1,6-naphthyridin-6(5H)-yl)-5-methylnicotinonitrile] |  | 
10 | 54 | 2680 | Cc1cc(F)ncc1-c1cnc2c(c1)CN(c1nnc(C#N)c(C)c1C)CC2 [Example 320, 6-(3-(6-fluoro-4-methylpyridin-3-yl)-7,8-dihydro-1,6-naphthyridin-6(5H)-yl)-4,5-dimethylpyridazine-3-carbonitrile] |  | 
11 | 73 | 356 | Cc1cc(C#N)nnc1N1CCc2ncc(-c3ccc(C4CC4)nc3)cc2C1 [Example 321, 6-(3-(6-cyclopropylpyridin-3-yl)-7,8-dihydro-1,6-naphthyridin-6(5H)-yl)-5-methylpyridazine-3-carbonitrile] |  | 
12 | 86 | 1040 | Cc1ccncc1-c1cnc2c(c1)CN(c1nnc(C#N)cc1C)CC2 [Example 322, 5-methyl-6-(3-(4-methylpyridin-3-yl)-7,8-dihydro-1,6-naphthyridin-6(5H)-yl)pyridazine-3-carbonitrile] |  | 
13 | 86 | 764 | Cc1cc(C#N)nnc1N1CCc2ncc(-c3cn(C)nc3C)cc2C1 [Example 323, 6-(3-(1,3-dimethyl-1H-pyrazol-4-yl)-7,8-dihydro-1,6-naphthyridin-6(5H)-yl)-5-methylpyridazine-3-carbonitrile] |  | 
14 | 70 | 1070 | Cc1c(C#N)nnc(N2CCc3ncc(-c4cnn(CCN(C)C)c4)cc3C2)c1C [Example 324, 6-(3-(1-(2-(dimethylamino)ethyl)-1H-pyrazol-4-yl)-7,8-dihydro-1,6-naphthyridin-6(5H)-yl)-4,5-dimethylpyridazine-3-carbonitrile] |  | 
15 | 51 | 2950 | Cc1c(C#N)nnc(N2CCc3ncc(-c4cnn(CCN5CCOCC5)c4)cc3C2)c1C [Example 325, 4,5-dimethyl-6-(3-(1-(2-morpholinoethyl)-1H-pyrazol-4-yl)-7,8-dihydro-1,6-naphthyridin-6(5H)-yl)pyridazine-3-carbonitrile] |  | 
16 | 68 | 611 | Cc1c(C#N)nnc(N2CCc3ncc(-c4cnn(C(F)F)c4)cc3C2)c1C [Example 326, 6-(3-(1-(difluoromethyl)-1H-pyrazol-4-yl)-7,8-dihydro-1,6-naphthyridin-6(5H)-yl)-4,5-dimethylpyridazine-3-carbonitrile] |  | 
17 | 68 | 1910 | Cc1c(C#N)nnc(N2CCc3ncc(-c4cnn(CC(C)(C)O)c4)cc3C2)c1C [Example 327, 6-(3-(1-(2-hydroxy-2-methylpropyl)-1H-pyrazol-4-yl)-7,8-dihydro-1,6-naphthyridin-6(5H)-yl)-4,5-dimethylpyridazine-3-carbonitrile] |  | 
18 | 64 | 191 | Cc1c(C#N)nnc(N2CCc3ncc(-c4ccc(N5CCN(C)CC5)nc4)cc3C2)c1C [Example 328, 4,5-dimethyl-6-(3-(6-(4-methylpiperazin-1-yl)pyridin-3-yl)-7,8-dihydro-1,6-naphthyridin-6(5H)-yl)pyridazine-3-carbonitrile] |  | 
19 | 66 | 554 | Cc1c(C#N)nnc(N2CCc3ncc(-c4ccc(N5CC(C(C)(C)O)C5)nc4)cc3C2)c1C [Example 329, 6-(3-(6-(3-(2-hydroxypropan-2-yl)azetidin-1-yl)pyridin-3-yl)-7,8-dihydro-1,6-naphthyridin-6(5H)-yl)-4,5-dimethylpyridazine-3-carbonitrile] |  | 
20 |  |  | Cc1cc(C#N)cnc1N1CCc2ncc(C3CC3)cc2C1 [Example 330, 6-(3-cyclopropyl-7,8-dihydro-1,6-naphthyridin-6(5H)-yl)-5-methylnicotinonitrile] | 85 | 71
21 | 86 | 43 | Cc1cc(C#N)cnc1N1CCc2ncc(N(C)c3ccnn3C)cc2C1 [Example 331, 5-methyl-6-(3-(methyl(1-methyl-1H-pyrazol-5-yl)amino)-7,8-dihydro-1,6-naphthyridin-6(5H)-yl)nicotinonitrile] |  | 
22 | 83 | 824 | Cc1c(C#N)nnc(N2CCc3ncc(-c4ccc(N5CC6(COC6)C5)nc4)cc3C2)c1C [Example 332, 6-(3-(6-(2-oxa-6-azaspiro[3.3]heptan-6-yl)pyridin-3-yl)-7,8-dihydro-1,6-naphthyridin-6(5H)-yl)-4,5-dimethylpyridazine-3-carbonitrile] |  | 
